# According to US20230354703A1, “ORGANIC COMPOUND AND LIGHT-EMITTING DEVICE” (SEMICONDUCTOR ENERGY LABORATORY CO., LTD., priority 2022, published 2023):
# How the values were obtained:
# [1] = water-solubility examined by calculation: polarization term δp of the solubility parameter (classical molecular dynamics, Desmond/OPLS2005); conditions: from the difference between the calculated δp and the δp of water (16.0); larger difference = lower solubility
# Protocol: Then, the water-solubility of 2,9hpp2Phen was examined by calculation and the results are shown.
# Desmond was used as software for the classical molecular dynamics calculation, and OPLS2005 was used for the force field. The calculation was performed using a high performance computer (Apollo 6500 manufactured by Hewlett Packard Enterprise Development).
# A standard cell containing approximately 32 molecules is used a calculation model. […] After that, the structures are moved and rotated at random to move the molecules by Monte Carlo simulated annealing using OPLS2005 for the force field. Furthermore, the molecules are moved toward the center of the standard cell such that the density thereof is maximized; thus, the initial arrangement is obtained.
# As a basis function, 6-31G** was used, and as a functional, B3LYP-D3 was used. […]
# The aforementioned initial arrangement is subjected to Brownian motion simulation and then defined in an NVT ensemble; subsequently, calculation in an NPT ensemble is performed for an enough relaxation time (30 ns) under the conditions of 1 atm and 300 K with respect to time steps that reproduce molecular vibration (2 fs), so that an amorphous solid is calculated. […]
# The actually measured value δp corresponding to the polarization term for the water-solubility parameter is disclosed as 16.0 in Japanese Published Patent Application No. 2017-173056, for example. […]
# [2] = statement in words, background/description; cited from earlier work
SMILES,solubility in water compared with hpp2Py [1],solubility in water [2]
"c1cc2ccc3ccc(N4CCCN5CCCN=C54)nc3c2nc1N1CCCN2CCCN=C21 [2,9hpp2Phen, 2,9-bis(1,3,4,6,7,8-hexahydro-2H-pyrimido[1,2-a]pyrimidin-1-yl)-1,10-phenanthroline]",less soluble in water than hpp2Py,
"c1cc(N2CCCN3CCCN=C32)c2ccc3c(N4CCCN5CCCN=C54)ccnc3c2n1 [4,7hpp2Phen, 4,7-bis(1,3,4,6,7,8-hexahydro-2H-pyrimido[1,2-a]pyrimidin-1-yl)-1,10-phenanthroline]",less soluble in water than hpp2Py,
"c1cc(N2CCCN3CCCN=C32)nc(N2CCCN3CCCN=C32)c1 [hpp2Py, 1,1′-pyridine-2,6-diyl-bis(1,3,4,6,7,8-hexahydro-2H-pyrimido[1,2-a]pyrimidine)]",,highly soluble in water
